Laboratory results: patent US7807703B2, “Substituted aryl ketones” (Bayer CropScience AG, priority 2002, dated 2010)

Test: log P determination by reversed-phase HPLC (EEC Directive 79/831 Annex V.A8; acidic or neutral mobile phase)
Assay type: physicochemical
Conditions: HPLC reversed-phase C18, 43° C.; acidic range: 0.1% aqueous phosphoric acid, acetonitrile gradient (marked a))
Protocol: The log P values given in the table were determined in accordance with EEC Directive 79/831 Annex V.A8 by HPLC (High Performance Liquid Chromatography) using a reversed-phase column (C 18). Temperature: 43° C.
(a) Mobile phases for the determination in the acidic range: 0.1% aqueous phosphoric acid, acetonitrile; linear gradient from 10% acetonitrile to 90% acetonitrile—the corresponding measurement results are marked a) in Table 1.
(b) Mobile phases for the determination in the neutral range: 0.01 molar aqueous phosphate buffer solution, acetonitrile; linear gradient from 10% acetonitrile to 90% acetonitrile—the corresponding measurement results are marked b) in Table 1.

Q: Which logP does the source give for `O=C1CCCC(=O)C1C(=O)c1ccc(Cl)c(OCCNS(=O)(=O)CCl)c1Cl` [Example 7] here?
A: Its logP is “logP = 2.57^a)”.

Q: For `CCn1ncc(C(=O)c2ccc(Cl)c(OCCNS(=O)(=O)CCl)c2Cl)c1O` [Example 8], which logP is on record?
A: Its logP is “logP = 2.05^a)”.

Q: With `O=C1CCCC(=O)C1C(=O)c1ccc(Cl)c(OCCNS(=O)(=O)C(F)(F)F)c1Cl` [Example 9] as the molecule, how does the logP read?
A: Its logP is “logP = 3.25^a)”.

Q: With `CCn1ncc(C(=O)c2ccc(Cl)c(OCCNS(=O)(=O)C(F)(F)F)c2Cl)c1O` [Example 10] as the molecule, how does the logP read?
A: Its logP is “logP = 2.72^a)”.

Q: For `CCn1ncc(C(=O)c2ccc(S(C)(=O)=O)c(CN(C)OC)c2Cl)c1O` [Example 11], which logP is on record?
A: Its logP is “logP = 1.78^a)”.

Q: With `CCn1nc(C)c(C(=O)c2ccc(S(C)(=O)=O)c(CN(C)OC)c2Cl)c1O` [Example 12] as the molecule, how does the logP read?
A: The logP was “logP = 1.45^a)”.

Q: For `CCn1ncc(C(=O)c2ccc(S(C)(=O)=O)c(OCCNS(C)(=O)=O)c2Cl)c1O` [Example 13], which logP is on record?
A: The logP was “logP = 1.23^a)”.

Q: With `CS(=O)(=O)NCCOc1c(S(C)(=O)=O)ccc(C(=O)C2C(=O)CCCC2=O)c1Cl` [Example 14] as the molecule, how does the logP read?
A: The logP was “logP = 1.76^a)”.

Q: Which logP does the source give for `CCn1ncc(C(=O)c2ccc(Br)c(OCCNS(C)(=O)=O)c2Br)c1O` [Example 17] here?
A: The logP was “logP = 1.71^a)”.

Q: For `CS(=O)(=O)NCCOc1c(Br)ccc(C(=O)C2C(=O)CCCC2=O)c1Br` [Example 18], which logP is on record?
A: The logP was “logP = 2.23^a)”.

Q: For `CCS(=O)(=O)NCCOc1c(Br)ccc(C(=O)C2C(=O)CCCC2=O)c1Br` [Example 20], which logP is on record?
A: The logP was “logP = 2.45^a)”.

Q: For `CCn1ncc(C(=O)c2ccc(Cl)c(OCCNS(=O)(=O)C(C)C)c2Cl)c1O` [Example 24], which logP is on record?
A: Its logP is “logP = 2.07^a)”.

Q: For `CC(C)S(=O)(=O)NCCOc1c(Cl)ccc(C(=O)C2C(=O)CCCC2=O)c1Cl` [Example 25], which logP is on record?
A: Its logP is “logP = 2.50^a)”.

Q: For `CCn1ncc(C(=O)c2ccc(Cl)c(OCCNS(=O)(=O)c3cccs3)c2Cl)c1O` [Example 34], which logP is on record?
A: Its logP is “(I-2) logP = 2.41^a)”.

Q: With `O=C1CCCC(=O)C1C(=O)c1ccc(Cl)c(OCCNS(=O)(=O)c2cccs2)c1Cl` [Example 35] as the molecule, how does the logP read?
A: Its logP is “(I-2) logP = 2.92^a)”.

Q: With `CONCc1c(Cl)ccc(C(=O)C2C(=O)CCCC2=O)c1Cl` [Example 129] as the molecule, how does the logP read?
A: The logP was “logP = 2.33^a)”.

Q: For `CCn1ncc(C(=O)c2ccc(Cl)c(CNOC)c2Cl)c1O` [Example 130], which logP is on record?
A: Its logP is “logP = 1.68^a)”.

Q: For `CCONCc1c(Cl)ccc(C(=O)C2C(=O)CCCC2=O)c1Cl` [Example 133], which logP is on record?
A: Its logP is “logP = 2.75^a)”.

Q: For `CCONCc1c(Cl)ccc(C(=O)c2cnn(CC)c2O)c1Cl` [Example 134], which logP is on record?
A: The logP was “logP = 2.07^a)”.

Q: Which logP does the source give for `CCONCc1c(S(C)(=O)=O)ccc(C(=O)c2cnn(CC)c2O)c1Cl` [Example 136] here?
A: The logP was “logP = 1.58^a)”.

Q: With `CON(C)Cc1c(S(C)(=O)=O)ccc(C(=O)C2C(=O)CCCC2=O)c1Cl` [Example 145] as the molecule, how does the logP read?
A: The logP was “logP = 2.49^a)”.

Q: With `CCN(Cc1c(Cl)ccc(C(=O)C2C(=O)CCCC2=O)c1Cl)OC` [Example 148] as the molecule, how does the logP read?
A: Its logP is “logP = 3.63^a)”.

Q: Which logP does the source give for `CCN(Cc1c(S(C)(=O)=O)ccc(C(=O)c2cnn(CC)c2O)c1Cl)OC` [Example 149] here?
A: The logP was “logP = 2.16^a)”.

Q: Which logP does the source give for `CCN(Cc1c(S(C)(=O)=O)ccc(C(=O)C2C(=O)CCCC2=O)c1Cl)OC` [Example 150] here?
A: Its logP is “logP = 2.87^a)”.

Q: With `CCn1ncc(C(=O)c2ccc(S(C)(=O)=O)c(CN(Cc3ccccc3)OC)c2Cl)c1O` [Example 153] as the molecule, how does the logP read?
A: The logP was “(I-2) logP = 2.82^a)”.

Q: With `C=CCN(Cc1c(S(C)(=O)=O)ccc(C(=O)c2cnn(CC)c2O)c1Cl)OC` [Example 157] as the molecule, how does the logP read?
A: The logP was “(I-2) logP = 2.29^a)”.

Q: For `C=CCN(Cc1c(S(C)(=O)=O)ccc(C(=O)C2C(=O)CCCC2=O)c1Cl)OC` [Example 158], which logP is on record?
A: The logP was “(I-2) logP = 3.01^a)”.

Q: For `CCCS(=O)(=O)NCCOc1c(Cl)ccc(C(=O)c2cnn(CC)c2O)c1Cl` [Example 167], which logP is on record?
A: Its logP is “logP = 2.15^a)”.

Q: With `CCCS(=O)(=O)NCCOc1c(Cl)ccc(C(=O)C2C(=O)CCCC2=O)c1Cl` [Example 168] as the molecule, how does the logP read?
A: Its logP is “logP = 2.67^a)”.

Same assay, conditions: HPLC reversed-phase C18, 43° C.; no a)/b) mark printed, mobile phase not given

Q: Which logP does the source give for `CON(C)Cc1c(Cl)ccc(C(=O)C2C(=O)CCCC2=O)c1Cl` [Example 1, 2-[2,4-dichloro-3-(N-methoxy-N-methylaminomethyl)benzoyl]-1,3-cyclohexanedione] here?
A: The logP was “logP = 3.04”.

Same assay, conditions: reversed-phase C18 HPLC column; HPLC, reversed-phase C 18, 43° C.; mobile phase range not marked; read-out: log P

Q: With `CON(C)Cc1c(Cl)ccc(C(=O)C2C(=O)CCCC2=O)c1Cl` [Example 1, 2-[2,4-dichloro-3-(N-methoxy-N-methylaminomethyl)benzoyl]-1,3-cyclohexanedione] as the molecule, how does the chromatographic logP read?
A: The chromatographic logP was 3.04.
